Data as given in patent US20250145665A1, “MACROCYCLIC PEPTIDES USEFUL AS MODULATORS OF TNF ALPHA” (Bristol-Myers Squibb Company, priority 2023, published 2025).
Where two headings read alike, the source gives them in different places. Starred links: 1 amine or outer side, 2 acyl side, 3 side chain; linkers in the order of their positions; H or OH if unused. Positions of bridges follow the written chain, without caps; N, C: chain ends. Non-standard residues stand in square brackets, D forms with d. Residues, ends and D or L forms follow the SMILES beside them. *: point of attachment. Bip(4'-NHCO-C6H4-3-CH2COOH) = N[C@@H](Cc1ccc(-c2ccc(NC(=O)c3cccc(CC(=O)O)c3)cc2)cc1)C(=O)O; Bip(4'-NHCO-C6H4-4-CH2COOH) = N[C@@H](Cc1ccc(-c2ccc(NC(=O)c3ccc(CC(=O)O)cc3)cc2)cc1)C(=O)O; dArg(Nω-CH2C6H4-3-CH2Gua) = N=C(N)NCc1cccc(CNC(=N)NCCC[C@@H](N)C(=O)O)c1; X21 = N=C(NCCC[C@@H](N[*:1])C(=O)[*:2])NC[C@H](O)[C@@H](O)[C@@H](O)CO; Bip(4'-NH) = O=C([C@H](Cc1ccc(-c2ccc(N[*:3])cc2)cc1)N[*:1])[*:2]; Indazole3carbonyl(1-CH2COOH) = O=C(O)Cn1nc(C(=O)*)c2ccccc21; Bip(4'-COOH) = N[C@@H](Cc1ccc(-c2ccc(C(=O)O)cc2)cc1)C(=O)O; Bip(4'-NHAc) = CC(=O)Nc1ccc(-c2ccc(C[C@H](N)C(=O)O)cc2)cc1; Indole3carbonyl(1-CH2COOH) = O=C(O)Cn1cc(C(=O)*)c2ccccc21; dArg(ω-Bn) = N=C(NCCC[C@@H](N)C(=O)O)NCc1ccccc1; Ala(morpholin-4-yl) = N[C@@H](CN1CCOCC1)C(=O)O; Benzoyl(3-OCH2COOH) = O=C(O)COc1cccc(C(=O)*)c1; Phe(3-CONH2) = NC(=O)c1cccc(C[C@H](N)C(=O)O)c1; Bip = N[C@@H](Cc1ccc(-c2ccccc2)cc1)C(=O)O; X13 = O=C([C@H](Cc1ccc[nH]1)N[*:1])[*:2]; 2Pal = N[C@@H](Cc1ccccn1)C(=O)O; 2Thi = N[C@@H](Cc1cccs1)C(=O)O; Tle = CC(C)(C)[C@H](N)C(=O)O; Sar = CNCC(=O)O

Biological target: TNFα (Homo sapiens, UniProt P01375)
Test: TNF-Induced HEK-Blue Assay
Format: cell-based
[1] = HEK-Blue-CD40L cells, NF-kB-driven secreted alkaline phosphatase reporter, TNFα 0.5 ng/ml, 18 h, read-out: TNF induced HEK-Blue assay IC50 value

Sequence of TNFα (P01375 77-233 limits assumed): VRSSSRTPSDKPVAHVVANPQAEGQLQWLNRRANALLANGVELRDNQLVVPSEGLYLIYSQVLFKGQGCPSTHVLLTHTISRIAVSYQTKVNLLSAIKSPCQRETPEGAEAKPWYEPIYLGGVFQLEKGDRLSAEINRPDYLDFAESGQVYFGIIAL

Row | SMILES | IC50 [1] [nM] | IC50 [nM]
1 | CC[C@H](C)[C@@H]1NC(=O)[C@@H](CCCNC(=N)N)NC(=O)[C@H](CC(=O)O)NC(=O)[C@H](Cc2cnc[nH]2)NC(=O)CN(C)C(=O)[C@H](Cc2ccc(-c3ccc(NC(=O)c4cccc(OCC(=O)O)c4)cc3)cc2)NC(=O)[C@H](Cc2ccc(-c3ccc(C(=O)O)cc3)cc2)NC(=O)[C@H](C(C)(C)C)NC(=O)CSC[C@@H](C(=O)NCC(N)=O)NC(=O)[C@H](CC(C)C)NC(=O)[C@H](Cc2cccc(C(N)=O)c2)NC(=O)[C@H](C(C)C)NC(=O)[C@@H]2CCCN2C1=O [Example 591] ({CH2CO}-[Tle][Bip(4'-COOH)][Bip(4'-NH)](Benzoyl(3-OCH2COOH))[Sar]HD[dR]IPV[Phe(3-CONH2)]LCG-NH2; thioether N-13) | < 50 | –
2 | CC(C)C[C@@H]1NC(=O)[C@H](Cc2ccc[nH]2)NC(=O)[C@H](C(C)C)NC(=O)[C@@H]2CCCN2C(=O)[C@H](C(C)C)NC(=O)[C@@H](CCCNC(=N)N)NC(=O)[C@H](CC(=O)O)NC(=O)[C@H](Cc2cnc[nH]2)NC(=O)CN(C)C(=O)[C@H](Cc2ccc(-c3ccc(NC(=O)c4cccc(CC(=O)O)c4)cc3)cc2)NC(=O)[C@H](Cc2ccc(-c3ccc(C(=O)O)cc3)cc2)NC(=O)[C@H](C(C)(C)C)NC(=O)CSC[C@@H](C(=O)NCC(N)=O)NC1=O [Example 597] ({CH2CO}-[Tle][Bip(4'-COOH)][Bip(4'-NHCO-C6H4-3-CH2COOH)][Sar]HD[dR]VPV[X13]LCG-NH2; thioether N-13) | < 50 | –
3 | CC[C@H](C)[C@@H]1NC(=O)[C@@H](CCCNC(=N)NCc2cccc(CNC(=N)N)c2)NC(=O)[C@H](CC(=O)O)NC(=O)[C@@H]2CCCN2C(=O)CN(C)C(=O)[C@H](Cc2ccc(-c3ccc(NC(=O)c4nn(CC(=O)O)c5ccccc45)cc3)cc2)NC(=O)[C@H](Cc2ccc(-c3ccccc3)cc2)NC(=O)[C@H](CN2CCOCC2)NC(=O)CSC[C@@H](C(=O)NCC(N)=O)NC(=O)[C@H](CC(C)C)NC(=O)[C@H](Cc2cnc[nH]2)NC(=O)[C@H](C(C)C)NC(=O)[C@@H]2CCCN2C1=O [Example 598] ({CH2CO}-[Ala(morpholin-4-yl)][Bip][Bip(4'-NH)](Indazole3carbonyl(1-CH2COOH))[Sar]PD[dArg(Nω-CH2C6H4-3-CH2Gua)]IPVHLCG-NH2; thioether N-13) | – | < 50
4 | CC[C@H](C)[C@@H]1NC(=O)[C@@H](CCCNC(=N)NC[C@H](O)[C@@H](O)[C@@H](O)CO)NC(=O)[C@H](CC(=O)O)NC(=O)[C@@H]2CCCN2C(=O)CN(C)C(=O)[C@H](Cc2ccc(-c3ccc(NC(=O)c4nn(CC(=O)O)c5ccccc45)cc3)cc2)NC(=O)[C@H](Cc2ccc(-c3ccccc3)cc2)NC(=O)[C@H](CN2CCOCC2)NC(=O)CSC[C@@H](C(=O)NCC(N)=O)NC(=O)[C@H](CC(C)C)NC(=O)[C@H](Cc2cnc[nH]2)NC(=O)[C@H](C(C)C)NC(=O)[C@@H]2CCCN2C1=O [Example 599] ({CH2CO}-[Ala(morpholin-4-yl)][Bip][Bip(4'-NH)](Indazole3carbonyl(1-CH2COOH))[Sar]PD[X21]IPVHLCG-NH2; thioether N-13) | – | < 50
5 | CC(C)C[C@@H]1NC(=O)[C@H](Cc2cccc(C(N)=O)c2)NC(=O)[C@H](C(C)C)NC(=O)[C@@H]2CCCN2C(=O)[C@H](C(C)C)NC(=O)[C@@H](CCCNC(=N)NCc2ccccc2)NC(=O)[C@H](CC(=O)O)NC(=O)[C@H](Cc2ccc(O)cc2)NC(=O)CN(C)C(=O)[C@H](Cc2ccc(-c3ccc(NC(=O)c4nn(CC(=O)O)c5ccccc45)cc3)cc2)NC(=O)[C@H](Cc2ccc(-c3ccccc3)cc2)NC(=O)[C@H](CN2CCOCC2)NC(=O)CSC[C@@H](C(=O)NCC(N)=O)NC1=O [Example 600] ({CH2CO}-[Ala(morpholin-4-yl)][Bip][Bip(4'-NH)](Indazole3carbonyl(1-CH2COOH))[Sar]YD[dArg(ω-Bn)]VPV[Phe(3-CONH2)]LCG-NH2; thioether N-13) | – | < 50
6 | CC(C)C[C@@H]1NC(=O)[C@H](Cc2cccc(C(N)=O)c2)NC(=O)[C@H](C(C)C)NC(=O)[C@@H]2CCCN2C(=O)[C@H](C(C)C)NC(=O)[C@@H](CCCNC(=N)NCc2ccccc2)NC(=O)[C@H](CC(=O)O)NC(=O)[C@H](Cc2ccc(O)cc2)NC(=O)CN(C)C(=O)[C@H](Cc2ccc(-c3ccc(NC(=O)c4cn(CC(=O)O)c5ccccc45)cc3)cc2)NC(=O)[C@H](Cc2ccc(-c3ccccc3)cc2)NC(=O)[C@H](CN2CCOCC2)NC(=O)CSC[C@@H](C(=O)NCC(N)=O)NC1=O [Example 601] ({CH2CO}-[Ala(morpholin-4-yl)][Bip][Bip(4'-NH)](Indole3carbonyl(1-CH2COOH))[Sar]YD[dArg(ω-Bn)]VPV[Phe(3-CONH2)]LCG-NH2; thioether N-13) | – | < 50
7 | CC(C)C[C@@H]1NC(=O)[C@H](Cc2cccc(C(N)=O)c2)NC(=O)[C@H](C(C)C)NC(=O)[C@@H]2CCCN2C(=O)[C@H](C(C)C)NC(=O)[C@@H](CCCNC(=N)NCc2ccccc2)NC(=O)[C@H](CC(=O)O)NC(=O)[C@H](Cc2ccc(O)cc2)NC(=O)CN(C)C(=O)[C@H](Cc2ccc(-c3ccc(NC(=O)c4ccc(CC(=O)O)cc4)cc3)cc2)NC(=O)[C@H](Cc2ccc(-c3ccccc3)cc2)NC(=O)[C@H](CN2CCOCC2)NC(=O)CSC[C@@H](C(=O)NCC(N)=O)NC1=O [Example 602] ({CH2CO}-[Ala(morpholin-4-yl)][Bip][Bip(4'-NHCO-C6H4-4-CH2COOH)][Sar]YD[dArg(ω-Bn)]VPV[Phe(3-CONH2)]LCG-NH2; thioether N-13) | < 50 | –
8 | CC(C)C[C@@H]1NC(=O)[C@H](Cc2cccc(C(N)=O)c2)NC(=O)[C@H](C(C)C)NC(=O)[C@@H]2CCCN2C(=O)[C@H](C(C)C)NC(=O)[C@@H](CCCNC(=N)NCc2ccccc2)NC(=O)[C@H](CC(=O)O)NC(=O)[C@H](Cc2ccc(O)cc2)NC(=O)CN(C)C(=O)[C@H](Cc2ccc(-c3ccc(NC(=O)c4cccc(CC(=O)O)c4)cc3)cc2)NC(=O)[C@H](Cc2ccc(-c3ccccc3)cc2)NC(=O)[C@H](CN2CCOCC2)NC(=O)CSC[C@@H](C(=O)NCC(N)=O)NC1=O [Example 603] ({CH2CO}-[Ala(morpholin-4-yl)][Bip][Bip(4'-NHCO-C6H4-3-CH2COOH)][Sar]YD[dArg(ω-Bn)]VPV[Phe(3-CONH2)]LCG-NH2; thioether N-13) | < 50 | –
9 | CC[C@H](C)[C@@H]1NC(=O)[C@@H](CCCNC(=N)N)NC(=O)[C@H](CC(=O)O)NC(=O)[C@H](Cc2ccccn2)NC(=O)CN(C)C(=O)[C@H](Cc2ccc(-c3ccc(NC(C)=O)cc3)cc2)NC(=O)[C@H](Cc2ccc(-c3ccccc3)cc2)NC(=O)[C@H](CN2CCOCC2)NC(=O)CSC[C@@H](C(=O)NCC(N)=O)NC(=O)[C@H](CC(C)C)NC(=O)[C@H](Cc2cccs2)NC(=O)[C@H](C(C)C)NC(=O)[C@@H]2CCCN2C1=O [Example 604] ({CH2CO}-[Ala(morpholin-4-yl)][Bip][Bip(4'-NHAc)][Sar][2Pal]D[dR]IPV[2Thi]LCG-NH2; thioether N-13) | < 50 | –
10 | CC(=O)Nc1ccc(-c2ccc(C[C@@H]3NC(=O)[C@H](Cc4ccc(-c5ccccc5)cc4)NC(=O)[C@H](C(C)(C)C)NC(=O)CSC[C@@H](C(=O)NCC(N)=O)NC(=O)[C@H](CC(C)C)NC(=O)[C@H](Cc4cccs4)NC(=O)[C@H](C(C)C)NC(=O)[C@@H]4CCCN4C(=O)[C@H](C(C)C)NC(=O)[C@@H](CCCNC(=N)N)NC(=O)[C@H](CC(=O)O)NC(=O)[C@H](Cc4ccccn4)NC(=O)CN(C)C3=O)cc2)cc1 [Example 605] ({CH2CO}-[Tle][Bip][Bip(4'-NHAc)][Sar][2Pal]D[dR]VPV[2Thi]LCG-NH2; thioether N-13) | 200 to 2000 | –
11 | CC(C)C[C@@H]1NC(=O)[C@H](Cc2cccs2)NC(=O)[C@H](C(C)C)NC(=O)[C@@H]2CCCN2C(=O)[C@H](C(C)C)NC(=O)[C@@H](CCCNC(=N)N)NC(=O)[C@H](CC(=O)O)NC(=O)[C@H](Cc2ccccn2)NC(=O)CN(C)C(=O)[C@H](Cc2ccc(-c3ccc(NC(=O)c4cccc(OCC(=O)O)c4)cc3)cc2)NC(=O)[C@H](Cc2ccc(-c3ccccc3)cc2)NC(=O)[C@H](CN2CCOCC2)NC(=O)CSC[C@@H](C(=O)NCC(N)=O)NC1=O [Example 606] ({CH2CO}-[Ala(morpholin-4-yl)][Bip][Bip(4'-NH)](Benzoyl(3-OCH2COOH))[Sar][2Pal]D[dR]VPV[2Thi]LCG-NH2; thioether N-13) | < 50 | –
12 | CC(C)C[C@@H]1NC(=O)[C@H](Cc2cccs2)NC(=O)[C@H](C(C)C)NC(=O)[C@@H]2CCCN2C(=O)[C@H](C(C)C)NC(=O)[C@@H](CCCNC(=N)N)NC(=O)[C@H](CC(=O)O)NC(=O)[C@H](Cc2ccccn2)NC(=O)CN(C)C(=O)[C@H](Cc2ccc(-c3ccc(NC(=O)c4ccc(CC(=O)O)cc4)cc3)cc2)NC(=O)[C@H](Cc2ccc(-c3ccccc3)cc2)NC(=O)[C@H](CN2CCOCC2)NC(=O)CSC[C@@H](C(=O)NCC(N)=O)NC1=O [Example 607] ({CH2CO}-[Ala(morpholin-4-yl)][Bip][Bip(4'-NHCO-C6H4-4-CH2COOH)][Sar][2Pal]D[dR]VPV[2Thi]LCG-NH2; thioether N-13) | < 50 | –
13 | CC(C)C[C@@H]1NC(=O)[C@H](Cc2cccs2)NC(=O)[C@H](C(C)C)NC(=O)[C@@H]2CCCN2C(=O)[C@H](C(C)C)NC(=O)[C@@H](CCCNC(=N)N)NC(=O)[C@H](CC(=O)O)NC(=O)[C@H](Cc2ccccn2)NC(=O)CN(C)C(=O)[C@H](Cc2ccc(-c3ccc(NC(=O)c4cccc(CC(=O)O)c4)cc3)cc2)NC(=O)[C@H](Cc2ccc(-c3ccccc3)cc2)NC(=O)[C@H](CN2CCOCC2)NC(=O)CSC[C@@H](C(=O)NCC(N)=O)NC1=O [Example 608] ({CH2CO}-[Ala(morpholin-4-yl)][Bip][Bip(4'-NHCO-C6H4-3-CH2COOH)][Sar][2Pal]D[dR]VPV[2Thi]LCG-NH2; thioether N-13) | < 50 | –
14 | CC(C)C[C@@H]1NC(=O)[C@H](Cc2cccs2)NC(=O)[C@H](C(C)C)NC(=O)[C@@H]2CCCN2C(=O)[C@H](C(C)C)NC(=O)[C@@H](CCCNC(=N)N)NC(=O)[C@H](CC(=O)O)NC(=O)[C@H](Cc2ccccn2)NC(=O)CN(C)C(=O)[C@H](Cc2ccc(-c3ccc(NC(=O)c4cccc(OCC(=O)O)c4)cc3)cc2)NC(=O)[C@H](Cc2ccc(-c3ccc(C(=O)O)cc3)cc2)NC(=O)[C@H](CN2CCOCC2)NC(=O)CSC[C@@H](C(=O)NCC(N)=O)NC1=O [Example 609] ({CH2CO}-[Ala(morpholin-4-yl)][Bip(4'-COOH)][Bip(4'-NH)](Benzoyl(3-OCH2COOH))[Sar][2Pal]D[dR]VPV[2Thi]LCG-NH2; thioether N-13) | < 50 | –
